According to patent US8784793B2, “Conformable solvent-based bandage and coating material” (Rochal Industries LLP, priority 2005, dated 2014):

Assay: Rate of polymerization of BCA on a glass slide as a function of HMDS concentration
Assay type: physicochemical
Method: Additionally, a test was conducted for the rate of polymerization as a function of solvent concentration in order to assess the time interval for heat generation upon the polymerization of the cyanoacrylate monomer. The mixture included n-butyl cyanoacrylate in the presence and absence of hexamethyldisiloxane. […] Utilizing a glass slide containing BCA with no HMDS as the control, polymerization of this neat system occurred in 25 seconds. When a 20% BCA solution in HMDS was studied, utilizing the same amount of BCA as in the control, polymerization occurred in 40 seconds, and decreased the polymerization rate by 60%. […] Thus, the addition of the non-stinging, non-irritating volatile hexamethyldisiloxane solvent caused polymerization of the cyanoacrylate to occur at a slower rate than that reported by U.S. Pat. No. 6,010,714, allowing the heat of polymerization to be more evenly dissipated. […] The use of the HMDS would thus facilitate rapid coverage of a wound site.

C=C(C#N)C(=O)OCCCC [BCA, n-Butyl cyanoacrylate]
flow over the glass surface: tended to bead
time in which polymerization occurred (same amount of BCA as control): 25 s
